Assay results as given in patent publication US8324384B2, “Glucagon receptor antagonist compounds, compositions containing such compounds and methods of use” (Merck Sharp & Dohme Corp., priority 2010, dated 2012).

target: T1, cloned human glucagon receptor (Homo sapiens, UniProt P47871); assay: Glucagon Receptor Binding Assay (125I-Glucagon, SPA, CHO cell membranes); conditions: inhibition of 125I-Glucagon binding to membranes of CHO cells expressing human glucagon receptor; more active isomer of indicated compounds
T1 construct: expressed in transfected cells; cell membranes used
Description: Glucagon Receptor Binding Assay
A stable CHO (Chinese hamster ovary) cell line expressing cloned human glucagon receptor was maintained as described (Chiechi, et. al. J Biol Chem 272, 7765-9(1997); Cascieri, et. al. J Biol Chem 274, 8694-7(1999)). To determine antagonistic binding affinity of compounds, 0.001-0.003 mg of cell membranes from these cells were pre-incubated with 0.100 mg WGA-coated PVT SPA beads (Amersham) for 20 minutes at room temperature in 25 μL of a buffer containing 50 mM Tris-HCl (pH 7.5), 5 mM MgCl2, 2 mM EDTA, 0.1% BSA and 3% glycerol in Costar 384 well plates with clear bottoms (#3706). Next, 25 μL of ^125I-Glucagon (New England Nuclear, MA) (1×10^−14 mol per well) and either 1 μL solutions of test compounds or 0.001 mM unlabeled glucagon or DMSO were added and mixed. After 4-12 hours incubation at room temperature, the radioactivity bound to the cell membranes was determined in a radioactive emission detection counter (Wallac-Microbeta). Data were analyzed using the Data Analyzer software program of Merck & Co., Inc. The IC50 values were calculated using non-linear regression analysis assuming single-site competition.

T1 sequence (P47871 26-477): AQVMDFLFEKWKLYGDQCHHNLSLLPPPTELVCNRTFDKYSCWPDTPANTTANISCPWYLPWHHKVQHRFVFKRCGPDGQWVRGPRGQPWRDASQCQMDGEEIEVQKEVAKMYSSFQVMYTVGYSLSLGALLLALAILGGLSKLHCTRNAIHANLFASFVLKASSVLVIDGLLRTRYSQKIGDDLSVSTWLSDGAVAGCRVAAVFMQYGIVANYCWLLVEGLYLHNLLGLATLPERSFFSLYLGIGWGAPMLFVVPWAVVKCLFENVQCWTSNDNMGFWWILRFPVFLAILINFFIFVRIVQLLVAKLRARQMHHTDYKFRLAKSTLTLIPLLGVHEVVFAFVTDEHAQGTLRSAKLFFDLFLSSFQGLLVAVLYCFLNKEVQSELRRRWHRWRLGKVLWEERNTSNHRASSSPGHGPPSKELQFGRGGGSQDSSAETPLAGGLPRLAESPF

Compared with `CCCC(c1ccc(C(=O)NCC(O)C(=O)O)cc1)C(C(=O)N1Cc2ccc(OC(F)(F)F)cc2C1)c1ccc(Cl)cc1` (mixture of isomers) [Example 99], `CCCC(c1ccc(C(=O)NC(C)CC(=O)O)cc1)C(C(=O)N1Cc2ccc(OC(F)(F)F)cc2C1)c1ccc(Cl)cc1` (mixture of isomers) [Example 101] is 5.4-fold higher in IC50: 1100 pM for the first, 5900 pM for the second.

Compared with `CCCC(c1ccc(C(=O)NCCC(=O)O)cc1)C(C(=O)N1CCc2ccccc21)c1ccc(Cl)cc1` (racemic) [Example 3, N-(4-{1-[1-(4-chlorophenyl)-2-(2,3-dihydro-1H-indol-1-yl)-2-oxoethyl]butyl}benzoyl)-β-alanine], `CCCC(c1ccc(C(=O)NCCC(=O)O)cc1)C(C(=O)N1CCCc2ccccc21)c1ccc(Cl)cc1` (single isomer, unassigned) [Example 2, N-(4-{1-[1-(4-chlorophenyl)-2-(3,4-dihydroquinolin-1(2H)-yl)-2-oxoethyl]butyl}benzoyl)-β-alanine] is 4.8-fold higher in IC50: 10000 pM for the first, 48000 pM for the second. The first is the more potent here.

Compared with `CCCC(c1ccc(C(=O)NCCC(=O)O)cc1)C(C(=O)N1Cc2cccc(C(F)(F)F)c2C1)c1ccc(Cl)cc1` (single isomer, unassigned) [Example 1, N-[4-(1-{1-(4-chlorophenyl)-2-oxo-2-[4-(trifluoromethyl)-1,3-dihydro-2H-isoindol-2-yl]ethyl}butyl)benzoyl]-β-alanine], `CCCC(c1ccc(C(=O)NCCC(=O)O)cc1)C(C(=O)N1Cc2cccc(C)c2C1)c1ccc(Cl)cc1` (single isomer, unassigned) [Example 49] is 8-fold lower in IC50: 800 pM for the first, 100 pM for the second. The second is the more potent here.

First: CCCC(c1ccc(C(=O)NCCC(=O)O)cc1)C(C(=O)N1Cc2ccc(-c3cccnc3OC)cc2C1)c1ccc(Cl)cc1 (single isomer, unassigned) [Example 4, N-[4-(1-{1-(4-chlorophenyl)-2-[5-(2-methoxypyridin-3-yl)-1,3-dihydro-2H-isoindol2-yl]-2-oxoethyl}butyl)benzoyl]-β-alanine]
Second: CCCC(c1ccc(C(=O)NCCC(=O)O)cc1)C(C(=O)N1Cc2ccc(-c3cc(OC)ccn3)cc2C1)c1ccc(Cl)cc1 (stereo not shown) [Example 13]
The IC50 of the first is 4-fold lower: 500 pM for the first, 2000 pM for the second. The first is the more potent here.

`CCCC(c1ccc(C(=O)NCCC(=O)O)cc1)C(C(=O)N1Cc2cc(Cl)cc(Cl)c2C1)c1ccc(Cl)cc1` (single isomer, unassigned) [Example 55] and `CCCC(c1ccc(C(=O)NCCC(=O)O)cc1)C(C(=O)N1Cc2ccc(C)cc2C1)c1ccc(Cl)cc1` (stereo not shown) [Example 37] are the same in IC50: 600 pM for the first, 600 pM for the second.

Compared with `CCCC(c1ccc(C(=O)NCCC(=O)O)cc1)C(C(=O)N1CCc2cc(-c3ccc(Cl)cc3)ccc2C1)c1ccc(Cl)cc1` (single isomer, unassigned) [Example 69], `CCCC(c1ccc(C(=O)NCCC(=O)O)cc1)C(C(=O)N1CCc2cc(-c3ccc(C)cc3)ccc2C1)c1ccc(Cl)cc1` (single isomer, unassigned) [Example 70] is 1.6-fold higher in IC50: 1000 pM for the first, 1600 pM for the second.

First: CCCC(c1ccc(C(=O)NCCC(=O)O)cc1)C(C(=O)N1CCc2cc(OC)ccc2C1)c1ccc(Cl)cc1 (single isomer, unassigned) [Example 79]
Second: CCCC(c1ccc(C(=O)NCCC(=O)O)cc1)C(C(=O)N1CCc2cc(C)ccc2C1)c1ccc(Cl)cc1 (single isomer, unassigned) [Example 82]
The IC50 of the first is 3.8-fold higher: 1500 pM for the first, 400 pM for the second.

Compared with `CCCC(c1ccc(C(=O)NCCC(=O)O)cc1)C(C(=O)N1CCc2cc(C(F)(F)F)ccc2C1)c1ccc(Cl)cc1` (single isomer, unassigned) [Example 80], `CCCC(c1ccc(C(=O)NCCC(=O)O)cc1)C(C(=O)N1CCc2ccc(F)cc2C1)c1ccc(Cl)cc1` (single isomer, unassigned) [Example 93] is 11-fold higher in IC50: 900 pM for the first, 9800 pM for the second. The first is the more potent here.

Compared with `CCCC(c1ccc(C(=O)NCCC(=O)O)cc1)C(C(=O)N1CCc2ccc(-c3ccc(C)cc3)cc2C1)c1ccc(Cl)cc1` (single isomer, unassigned) [Example 88], `CCCC(c1ccc(C(=O)NCCC(=O)O)cc1)C(C(=O)N1CCc2cc(-c3ccc(C)cc3)ccc21)c1ccc(Cl)cc1` (stereo not shown) [Example 63] is 16-fold lower in IC50: 3200 pM for the first, 200 pM for the second. The second is the more potent here.

Going from `CCCC(c1ccc(C(=O)Nc2nnn[nH]2)cc1)C(C(=O)N1Cc2ccc(OC(F)(F)F)cc2C1)c1ccc(Cl)cc1` (stereo not shown) [Example 5] to `CCCC(c1ccc(C(=O)NCCS(=O)(=O)O)cc1)C(C(=O)N1Cc2ccc(C(F)(F)F)cc2C1)c1ccc(Cl)cc1` (stereo not shown) [Example 107], the IC50 falls from 2200 pM to 1100 pM (2-fold). The second is the more potent here.

`CCCC(c1ccc(C(=O)NCCC(=O)O)cc1)C(C(=O)N1Cc2ccc(C(F)(F)F)cc2C1)c1ccc(C(F)(F)F)cc1` (stereo not shown) [Example 6] and `CCCC(c1ccc(C(=O)NCCC(=O)O)cc1)C(C(=O)N1Cc2ccc(-c3ccc(OC)nc3)cc2C1)c1ccc(C(F)(F)F)cc1` (stereo not shown) [Example 8] are the same in IC50: 400 pM for the first, 400 pM for the second.

Compared with `CCCC(c1ccc(C(=O)NCCC(=O)O)cc1)C(C(=O)N1Cc2ccc(-c3ccc(OC)nc3)cc2C1)c1cc(F)cc(F)c1` (stereo not shown) [Example 9], `CCCC(c1ccc(C(=O)NCCC(=O)O)cc1)C(C(=O)N1Cc2ccc(-c3ccc(OC)nc3)cc2C1)c1ccc(Cl)cc1` (stereo not shown) [Example 41] is 1.5-fold higher in IC50: 400 pM for the first, 600 pM for the second.

Going from `CCCC(c1ccc(C(=O)NCCC(=O)O)cc1)C(C(=O)N1Cc2ccc(-c3ccnc(C)c3)cc2C1)c1ccc(Cl)cc1` (stereo not shown) [Example 30] to `CCCC(c1ccc(C(=O)NCCC(=O)O)cc1)C(C(=O)N1Cc2ccc(C#N)cc2C1)c1ccc(Cl)cc1` (stereo not shown) [Example 36], the IC50 rises from 600 pM to 5500 pM (9.2-fold).

same assay, conditions: racemic diastereomers of Example 5 separated by reverse-phase HPLC; assay not given

In the case of `CCCC(c1ccc(C(=O)Nc2nnn[nH]2)cc1)C(C(=O)N1Cc2ccc(OC(F)(F)F)cc2C1)c1ccc(Cl)cc1` (single isomer, unassigned) [Example 5 Minor isomer], the “potency as glucagon receptor antagonist relative to the other diastereomer” value is reported as “less potent”.
`CCCC(c1ccc(C(=O)Nc2nnn[nH]2)cc1)C(C(=O)N1Cc2ccc(OC(F)(F)F)cc2C1)c1ccc(Cl)cc1` (stereo not shown) [Example 5] was tested, and the “potency as glucagon receptor antagonist relative to the other diastereomer” value was “more potent”.
